The series in a line: Solubility in 100 g of water at 20° C.

The values that follow come from patent US12503617B2, “Ink jet ink composition and recording method” (SEIKO EPSON CORPORATION, priority 2022, dated 2025).

In the case of `CC(CO)(CO)CO` [trimethylolethane], the solubility entry is “approximately 60 g/100 g of water”.
